Assay: Water solubility at 20° C.
Excerpt: Of special interest are the salts of acrylic and methacrylic acid and also of maleic acid, fumaric acid, and itaconic acid, and more particularly the alkali metal salts, and especially the sodium, potassium, and lithium salts; the alkaline earth metal salts, and especially the magnesium, calcium, strontium, and barium salts; the salts of subgroups I and II of the periodic table, and especially the copper and zinc salts; the salts of main and subgroup IV (Ge, Sn, Pb, Ti, Zr, Hf), and especially the germanium, tin, lead, titanium, and zirconium salts; the salts of subgroup VIII (Fe, Ru, Os, Co, Rh, Ir, Ni, Pd, Pt), and especially the iron, cobalt, and nickel salts; the salts of main and subgroups V ((As, Sb, Bi, V, Nb, Ta) and of subgroup VII (Mn, Tc, Re), and especially the antimony, bismuth, vanadium, and manganese salts; and the ammonium salts, including those derived from ammonium cations of the formula [drawing 1] wherein R1 and R2 are hydrogen or an alkyl group having from 1 to 18 carbon atoms, and preferably from 1 to 5 carbon atoms, and R3 and R4 are hydrogen or an alkyl group having from 1 to 18 carbon atoms, and preferably from 1 to 6 carbon atoms, or wherein R3 and R4, optionally with inclusion of one or two further hetero atoms such as nitrogen, oxygen, or sulfur, form a five- or six-membered heterocyclic system.

Compared with C=C(C)C(=O)[O-].[Na+] [Sodium methacrylate], C=C(C)C(=O)[O-].[Li+] [Lithium methacrylate] is lower in “Water solubility at 20° C.” value: 95.3 g/salt/100 g water for the first, 87.5 g/salt/100 g water for the second.

First: C=C(C)C(=O)[O-].[K+] [Potassium methacrylate]
Second: C=C(C)C(=O)O [Strontium dimethacrylate]
The “Water solubility at 20° C.” value of the first is higher: 101.8 g/salt/100 g water for the first, 27.5 g/salt/100 g water for the second.

For C=C(C)C(=O)O [Barium dimethacrylate], the “Water solubility at 20° C.” value was 40.5 g/salt/100 g water.

Assay: Water solubility of spray dried product (qualitative)
Format: physicochemical
Excerpt: Clear beads, some of them vitrified, were obtained. The major portion of these ranged in size from 10 to 20 microns; the largest particles were about 80 microns. The residual moisture of the spray dried material ranged from 0.35 to 0.55 percent and the bulk density from 540 to 600 grams/liter. Higher bulk densities can be obtained by increasing the operating temperature. Because of the good water solubility of the products being dried, the spray drying apparatus can be cleaned quite easily.
Clear beads in the range of 10 to 100 microns are obtained. The residual moisture of the spray dried material is less than 0.3%.

With C=C(C)C(=O)[O-].[Na+] [Sodium methacrylate] the “water solubility (in words)” value was “readily water soluble”.
